The text below walks through data of publication PMC10535741, “Styrylpyridinium Derivatives for Fluorescent Cell Imaging” (Pharmaceuticals, 2023).

“And” between values parts separate entries of the source, which are not always exact repeats. Equal values may be shown once.

Data set [1] can be described thus: Self-assembling properties by dynamic light scattering (DLS). It is filed as physicochemical. Particulars: 0.1 mM in aqueous medium, ethanol injection, freshly prepared. The method, then:
The estimation of self-assembling properties for the selected compounds was performed using dynamic light scattering (DLS) measurements. The values for the polydispersity index (PDI) and the hydrodynamic average diameter (Dav) of nanoparticles formed by compounds 6a,c–e,g were determined (with a final compound concentration of 0.1 mM in the aqueous medium). The nanoparticles were prepared by the ethanol injection method via the dissolution of the compound in ethanol and after that by the dispersion of the solution into water. The approach is rapid, simple, and can be easily scaled up. This method was previously used successfully for the preparation and characterisation of lipid-like pyridinium amphiphiles. The DLS measurements were performed for freshly prepared samples at room temperature.
The self-assembling properties of the tested compounds were estimated according to a published procedure with minor modifications. Stock solutions of the compounds were prepared in EtOH at a concentration of 1 mM. Stock solutions of the compounds (0.3 mL) were injected into 2.7 mL of deionised water with maximum stirring (IKA Vortex 2 (IKA, Staufen, Germany)) to obtain a final concentration of 0.1 mM. The DLS measurements of the nanoparticles in the aqueous solution were conducted using a Zetasizer Nano ZSP (Malvern Panalytical Ltd., Malvern, UK) instrument with Malvern Instruments Ltd. Software 8.01.4906. The measurements were performed with the following settings—medium: water; refractive index: 1.33; viscosity: 0.8872 cP; temperature: 25 °C; dielectric constant: 78.5; nanoparticles: liposomes; refractive index of materials: 1.60; detection angle: 173° wavelength: 633 nm. The obtained data were analysed using the multimodal number distribution software provided with the instrument. To ensure reproducibility, the measurements were performed in triplicate.

For data set [2], the system named is NIH3T3 (mouse fibroblast) cell line. Briefly: Basal cytotoxicity, neutral red uptake (NRU) assay, with LD50 estimated from IC50. In kind it is cell-based. The method, then: The evaluation of the in vitro cytotoxicity (IC50, half maximal inhibitory concentration) of the abovementioned compounds and their structural derivatives was assessed using the standard colorimetric 3-(4,5-dimethylthiazol-2-yl)-2,5-diphenyltetrazolium bromide (MTT) assay on two monolayer tumour cell lines, namely HT-1080 (human connective tissue fibrosarcoma) and MH-22A (mouse hepatocarcinoma). Additionally, the impact of the compound on non-cancerous “normal” cells—mouse fibroblasts (NIH3T3)—was estimated in order to measure the basal toxicity (LD50, median lethal dose). The obtained results were used for investigation of the structure–activity relationships and exploration of the effect of substituents on cellular response and toxicity. The estimated LD50 gives information regarding the compound properties and could potentially be used to select promising compounds by providing a starting dose for in vivo experiments.
To assess basal cytotoxicity, the neutral red uptake (NRU) assay was conducted following a modified version of the standard protocol of Stokes’ [71], as validated by the NICEATM-ECVAM study. The NRU cytotoxicity assay determines the ability of viable cells to incorporate and bind a supravital dye, neutral red (NR).
NIH3T3 cells (9000 cells/well) were cultured in 96-well plates in DMEM medium supplemented with 5% FBS for 24 h. Subsequently, the cells were exposed to the test compounds over a range of seven concentrations (1000 µg/mL, 316 µg/mL, 100 µg/mL, 31 µg/mL, 10 µg/mL, 3.0 µg/mL, and 1.0 µg/mL) for 24 h. Untreated cells were used as a control. After the incubation period, the medium was removed from all plates and a solution of NR was added (250 µL, 0.05 mg/mL NR in DMEM 24 h pre-incubated at 37 °C and then filtered before use through a 0.22 µm syringe filter). The plates were incubated for 3 h, followed by three washes with phosphate-buffered saline (PBS). The cells were then treated with a mixture of ethanol (50%) and water (49%) supplemented with 1% acetic acid. The absorbance of NR was measured using a spectrophotometer multiplate reader (Infinite M1000; Tecan Austria GmbH, Salzburg, Austria) at 540 nm. The optical density (OD) was then calculated using the following formula: ODtreated cells×100/ODcontrol cells.
The IC50 values were calculated using the program Graph Pad Prism® 3.0.
In vitro test results were employed to estimate the starting dose for acute oral systemic toxicity tests in rodents (LD50). The LD50 value was calculated using the in vitro IC50 value and a following formula: logLD50(mM/kg)=0.439×logIC50(mM)+0.621
The value was then converted to mg/kg and the compounds classified into four toxicity categories. Category 1 (highly toxic): LD50 ≤ 5 mg/kg; Category 2 (moderately toxic): 5 < LD50 ≤ 50 mg/kg; Category 3 (slightly toxic): 50 < LD50 ≤ 300 mg/kg; Category 4 (practically non-toxic): 300 < LD50 ≤ 2000 mg/kg.

As to `CCCCCCCCCCCC[n+]1ccc(C=Cc2cc(OC)c(OC)c(OC)c2)cc1.[Br-]` [Compound 6a, 4-(3,4,5-trimethoxystyryl)-N-dodecylpyridinium bromide], the “PDI (polydispersity index)” value in data set [1] stood at 0.331 ± 0.261. For the same compound, the “times decrease of basal toxicity of 6a compared with 6d” value in data set [2] (ratio of LD50 values) was 1.5 times.

Turning to `CCCCCCCCCCCCCCCC[n+]1ccc(C=Cc2cc(OC)c(OC)c(OC)c2)cc1.[Br-]` [Compound 6b], the “times more toxic than 6a, basal toxicity” value in data set [2] was 2.8 times. For the same compound, the “Basal cytotoxicity (NIH3T3) LD50” value is reported as 91 ± 6 mg/kg in data set [2] (estimated from in vitro NRU IC50 (24 h) by log LD50 = 0.439 x log IC50 + 0.621) and 0.15 mM/kg in data set [2] (mouse).

Take `CCCCCCCCCCCCCCCC[n+]1ccc(C=CC=Cc2ccc(OC)cc2)cc1.[Br-]` [Compound 6c, 1-hexadecyl-4-(4-(4-methoxyphenyl)buta-1,3-dien-1-yl)pyridin-1-ium bromide]: in data set [1], the “Dav, nm (average diameter of formed nanoparticles)” value was 212 nm and 212 ± 4 nm; the “PDI (polydispersity index)” value turned out to be 0.218 ± 0.026.

As to `CCCCCCCCCCCC[n+]1ccc(C=Cc2cc3c4c(c2)CCCN4CCC3)cc1.[Br-]` [Compound 6d, 1-dodecyl-4-(2-(2,3,6,7-tetrahydro-1H,5H-pyrido[3,2,1-ij]quinolin-9-yl)vinyl)pyridin-1-ium bromide], in data set [1], the “PDI (polydispersity index)” value is 0.286 ± 0.030. The “times higher basal cytotoxicity than compound 7a” value in data set [2] (6d versus 7a) was 6.5 times.

`CCCCCCCCCCCCCCCC[n+]1ccc(C=CC=Cc2cc3c4c(c2)CCCN4CCC3)cc1.[Br-]` [Compound 6e, 1-hexadecyl-4-(4-(2,3,6,7-tetrahydro-1H,5H-pyrido[3,2,1-ij]quinolin-9-yl)buta-1,3-dien-1-yl)pyridin-1-ium bromide]: in data set [1], the “Dav, nm (average diameter of formed nanoparticles)” value was 118 nm and 118 ± 4 nm; the “PDI (polydispersity index)” value turned out to be 0.260 ± 0.011. The “times lower basal cytotoxicity than 6d” value in data set [2] (6e versus 6d) was ~ 2.8 times. In addition, in data set [2] (from estimated LD50, NIH3T3), the “basal toxicity classification in words” value is on record as “harmful”.
